From the NIST ThermoML archive (doi:10.1016/j.tca.2012.11.015)
± gives the expanded uncertainty stated by the source.

Experiment: molar heat capacity at constant pressure
Conditions: 101.33 kPa, Crystal, Small sample (50 mg) DSC

[F-].[F-].[F-].[F-].[Li+].[Lu+3] [lithium lutetium fluoride]
Conditions	molar heat capacity at constant pressure [J/K/mol]
319.1 K	130.85 ± 2.6
320.6 K	131.02 ± 2.6
322.3 K	131.32 ± 2.6
324.2 K	132.25 ± 2.6
326.3 K	132.67 ± 2.6
328.5 K	133 ± 2.7
330.9 K	133.72 ± 2.7
333.4 K	133.98 ± 2.7
336 K	134.52 ± 2.7
338.8 K	134.79 ± 2.7
341.6 K	135.17 ± 2.7
344.6 K	135.52 ± 2.7
347.6 K	135.82 ± 2.7
350.6 K	136.23 ± 2.7
353.7 K	136.42 ± 2.7
356.9 K	136.86 ± 2.7
360.1 K	137.1 ± 2.7
363.4 K	137.35 ± 2.8
366.6 K	137.71 ± 2.8
369.9 K	138.05 ± 2.8
373.2 K	138.18 ± 2.8
376.4 K	138.33 ± 2.8
379.7 K	138.6 ± 2.8
382.9 K	138.79 ± 2.8
386.1 K	139.07 ± 2.8
389.3 K	139.36 ± 2.8
392.5 K	139.51 ± 2.8
395.7 K	139.75 ± 2.8
398.8 K	140.02 ± 2.8
401.9 K	140.28 ± 2.8
405 K	140.35 ± 2.8
408.1 K	140.55 ± 2.8
411.1 K	140.85 ± 2.8
414.1 K	141 ± 2.8
417.1 K	141.21 ± 2.8
420.1 K	141.55 ± 2.8
423.1 K	141.68 ± 2.8
426 K	141.88 ± 2.8
428.9 K	142.09 ± 2.8
431.8 K	142.34 ± 2.9
434.6 K	142.51 ± 2.9
437.4 K	142.74 ± 2.9
440.3 K	142.93 ± 2.9
443.1 K	143.15 ± 2.9
445.8 K	143.38 ± 2.9
448.6 K	143.52 ± 2.9
451.3 K	143.71 ± 2.9
454.1 K	144.09 ± 2.9
456.8 K	144.11 ± 2.9
459.5 K	144.4 ± 2.9
462.2 K	144.65 ± 2.9
464.9 K	144.87 ± 2.9
467.6 K	145.03 ± 2.9
470.3 K	145.2 ± 2.9
473 K	145.33 ± 2.9
475.6 K	145.69 ± 2.9
478.3 K	146.04 ± 2.9
480.9 K	146.21 ± 2.9
483.5 K	146.26 ± 2.9
486.2 K	146.62 ± 2.9
488.8 K	146.64 ± 2.9
491.4 K	146.9 ± 2.9
494 K	147.09 ± 2.9
496.6 K	147.19 ± 2.9
499.2 K	147.37 ± 3
501.8 K	147.62 ± 3
504.4 K	147.87 ± 3
506.9 K	148.03 ± 3
509.5 K	148.01 ± 3
512.1 K	148.31 ± 3
514.7 K	148.51 ± 3
517.2 K	148.78 ± 3
519.8 K	148.72 ± 3
522.4 K	148.99 ± 3
524.9 K	149.11 ± 3
527.5 K	149.23 ± 3
530 K	149.4 ± 3
532.6 K	149.69 ± 3
535.1 K	149.98 ± 3
537.6 K	150.02 ± 3
540.2 K	150.02 ± 3
542.7 K	150.2 ± 3
545.2 K	150.41 ± 3
547.8 K	150.44 ± 3
550.3 K	150.65 ± 3
552.8 K	150.77 ± 3
555.4 K	150.97 ± 3
557.9 K	151.21 ± 3
560.4 K	151.31 ± 3
562.9 K	151.22 ± 3
565.4 K	151.35 ± 3
567.9 K	151.77 ± 3
570.4 K	152.1 ± 3
572.9 K	151.97 ± 3
575.4 K	152.01 ± 3
577.9 K	152.43 ± 3
580.4 K	152.52 ± 3
582.9 K	152.55 ± 3
585.4 K	152.99 ± 3.1
587.9 K	153.06 ± 3.1
590.4 K	153.4 ± 3.1
592.8 K	153.37 ± 3.1
595.3 K	153.54 ± 3.1
597.8 K	153.59 ± 3.1
600.3 K	153.68 ± 3.1
602.8 K	153.91 ± 3.1
605.3 K	153.92 ± 3.1
607.7 K	153.98 ± 3.1
610.2 K	154.22 ± 3.1
612.7 K	154.27 ± 3.1
615.2 K	154.37 ± 3.1
617.6 K	154.5 ± 3.1
620.1 K	154.88 ± 3.1
622.6 K	154.95 ± 3.1
625.1 K	154.9 ± 3.1
627.5 K	155.19 ± 3.1
630 K	155.25 ± 3.1
632.5 K	155.38 ± 3.1
634.9 K	155.28 ± 3.1
637.4 K	155.32 ± 3.1
639.9 K	155.57 ± 3.1
642.3 K	155.79 ± 3.1
644.8 K	156.13 ± 3.1
647.3 K	155.71 ± 3.1
649.7 K	156.15 ± 3.1
652.2 K	156.38 ± 3.1
654.7 K	156.1 ± 3.1
657.1 K	156.18 ± 3.1
659.6 K	156.74 ± 3.1
662.1 K	156.82 ± 3.1
664.5 K	156.91 ± 3.1
667 K	157.05 ± 3.1
669.5 K	157.26 ± 3.1
671.9 K	157.26 ± 3.1
674.4 K	157.34 ± 3.1
676.9 K	157.51 ± 3.1
679.3 K	157.82 ± 3.2
681.8 K	157.78 ± 3.2
684.3 K	157.7 ± 3.1
686.7 K	157.84 ± 3.2
689.2 K	158.11 ± 3.2
691.6 K	158.21 ± 3.2
694.1 K	158.28 ± 3.2
696.6 K	158.3 ± 3.2
699 K	158.66 ± 3.2
701.5 K	158.32 ± 3.2
704 K	158.88 ± 3.2
706.4 K	158.86 ± 3.2
708.9 K	158.73 ± 3.2
711.3 K	159.06 ± 3.2
713.8 K	159.12 ± 3.2
716.3 K	159.23 ± 3.2
718.7 K	159.5 ± 3.2
721.2 K	159.17 ± 3.2
723.7 K	159.42 ± 3.2
726.1 K	159.52 ± 3.2
728.6 K	159.81 ± 3.2
731 K	159.67 ± 3.2
733.5 K	159.82 ± 3.2
736 K	160.19 ± 3.2
738.4 K	160.21 ± 3.2
740.9 K	159.84 ± 3.2
743.4 K	160.74 ± 3.2
745.8 K	160.23 ± 3.2
748.3 K	160.71 ± 3.2
750.8 K	160.51 ± 3.2
753.2 K	160.71 ± 3.2
755.7 K	160.47 ± 3.2
758.1 K	161.09 ± 3.2
760.6 K	160.99 ± 3.2
763.1 K	161.08 ± 3.2
765.5 K	161.21 ± 3.2
768 K	161.19 ± 3.2
770.5 K	161.33 ± 3.2
773 K	161.68 ± 3.2
775.4 K	161.44 ± 3.2
777.9 K	161.42 ± 3.2
780.4 K	161.69 ± 3.2
782.8 K	161.76 ± 3.2
785.3 K	161.68 ± 3.2
787.8 K	161.79 ± 3.2
790.2 K	161.81 ± 3.2
792.7 K	161.94 ± 3.2
795.2 K	162.55 ± 3.2
797.7 K	162.37 ± 3.2
800.1 K	162.27 ± 3.2
802.6 K	162.36 ± 3.2
805.1 K	162.55 ± 3.2
807.5 K	162.68 ± 3.2
810 K	162.67 ± 3.2
812.5 K	162.66 ± 3.2
815 K	162.95 ± 3.3
817.4 K	162.84 ± 3.3
819.9 K	162.94 ± 3.3
822.4 K	163.1 ± 3.3
824.9 K	163.41 ± 3.3
827.3 K	163.19 ± 3.3
829.8 K	163.53 ± 3.3
832.3 K	163.61 ± 3.3
834.8 K	163.59 ± 3.3
837.3 K	163.47 ± 3.3
839.8 K	163.45 ± 3.3
842.2 K	163.53 ± 3.3
844.7 K	163.85 ± 3.3
847.2 K	163.88 ± 3.3
849.6 K	163.86 ± 3.3
852.1 K	163.85 ± 3.3
854.6 K	163.88 ± 3.3
857.1 K	163.9 ± 3.3
859.6 K	164.11 ± 3.3
862.1 K	164.25 ± 3.3
864.6 K	164.33 ± 3.3
867 K	164.11 ± 3.3
869.5 K	164.63 ± 3.3
872 K	164.68 ± 3.3
874.5 K	164.55 ± 3.3
877 K	164.67 ± 3.3
879.5 K	164.73 ± 3.3
881.9 K	165.01 ± 3.3
884.4 K	164.63 ± 3.3
886.9 K	165.15 ± 3.3
889.4 K	164.71 ± 3.3
891.9 K	164.79 ± 3.3
894.4 K	164.9 ± 3.3
896.9 K	165 ± 3.3
899.4 K	165.27 ± 3.3
901.8 K	165.61 ± 3.3
904.3 K	165.53 ± 3.3
906.8 K	165.9 ± 3.3
909.3 K	165.68 ± 3.3
911.8 K	166.05 ± 3.3
914.3 K	165.94 ± 3.3
916.8 K	165.71 ± 3.3
919.3 K	165.93 ± 3.3
921.7 K	165.89 ± 3.3
924.2 K	166.2 ± 3.3
926.7 K	166.37 ± 3.3
929.2 K	166.53 ± 3.3
931.7 K	166.66 ± 3.3
934.2 K	166.07 ± 3.3
936.7 K	166.68 ± 3.3
939.2 K	167.32 ± 3.4
941.7 K	167.41 ± 3.4
944.2 K	167.52 ± 3.4
946.7 K	167.43 ± 3.4
949.2 K	167.53 ± 3.4
951.7 K	167.51 ± 3.4
